Assay results reported in publication PMC6389498, “Control of Bacterial Virulence through the Peptide Signature of the Habitat” (Cell Reports, 2019).
Values after ≈ are worked out from the molar mass of the structure shown. Where two headings read alike, the source gives them in different places. Residues, ends and D or L forms follow the SMILES beside them.

Assays:
L. monocytogenes P14 [1] = format: cell-based, Listeria monocytogenes
[2] = tested on: PrfA-dependent expression (PrfA-regulated hly promoter, luxABCDE reporter); assay: Phly-lux reporter of PrfA-dependent gene expression, opp (oppF::Tn) or ΔgshF mutant; format: cell-based, Listeria monocytogenes; conditions: for Rescue of PrfA phenotype of opp mutant: opp mutant in BHI-Amb, GSH 1 mM, L-cysteine at the CDM concentration
Description: (§1) Listeria were routinely grown in porcine BHI (BD-Difco) and Escherichia coli in Luria-Bertani (LB) media, with 1% agar for solid cultures. For adsorbent-treated BHI agar, 1% (w/v) Amberlite XAD4 resin (Sigma-Aldrich) or 0.5% (w/v) activated charcoal powder (Merck) was added to the medium prior to autoclaving. For fluid Amberlite XAD4-treated BHI cultures (BHI-Amb), the resin was aseptically removed after autoclaving to avoid interference with optical density (OD) readings. Chemically defined CDM is a modification of the improved minimal medium (IMM) of [Phan-Thanh and Gormon (1997)], with the following composition: 6.56 g/L […], 30.96 g/L NaHPO4 7H2O, 0.41 g/L MgSO4, 88 mg/L ferric citrate, 0.1 g/L each of the (L-) amino acids leucine, isoleucine, valine, methionine, arginine, cysteine, histidine and tryptophan, 0.6 g/L L-glutamine, 2.5 mg/L adenine, 0.5 mg/L biotin, 5 mg/L riboflavin, 1 mg/L each of thiamine, pyridoxal, para-aminobenzoic acid, calcium panthothenate and nicotinamide, 5 μg/L thioctic acid and 4.5 g/L glucose. CDM was used freshly prepared from filter-sterilized stock solutions stored at 4°C (except cysteine, glutamine, biotin and ferric citrate solutions, kept at –20°C; and phosphates, MgSO4 and glucose, at room temperature). Antibiotic supplements (μg/mL) were as follows (lower values for Listeria, others for E. coli or both): erythromycin 5 or 250, chloramphenicol 7.5 or 20, spectinomycin 100, carbenicillin 100. All incubations were carried out at 37°C, with 180 rpm orbital shaking for fluid cultures, unless stated otherwise. GSH was kept in reduced state with 2 mM Tris[2-carboxyethyl]phosphine hydrochloride (TCEP) in the stock solution. Chemicals and oligonucleotides were from Sigma-Aldrich unless otherwise indicated.
PrfA-dependent gene expression was quantitatively analyzed throughout the L. monocytogenes growth curve using a chromosomally integrated luxABCDE operon under the control of the PrfA-regulated hly promoter ([Bron et al., 2006]). Overnight bacterial cultures were washed, resuspended in PBS and used to inoculate fresh medium to an initial OD at 600 nm (OD600) ≈0.02-0.05. Triplicate 200-μl aliquots were transferred to opaque 96-well plates with clear bottom (ThermoScientific) and OD600 and luminescence readings taken every 30 min during incubation in an automated microplate reader (FLUOstar Omega, BMG Labtech). Bioluminescence values were normalized to growth at each time point. […] The number of transcripts was calculated by interpolation of threshold cycle (CT) values of cDNA amplifications in a standard regression curve generated from samples of known DNA concentration. […]

[3] = tested on: PrfA-dependent expression (PrfA-regulated hly promoter, luxABCDE reporter); assay: Phly-lux reporter of PrfA-dependent gene expression, wild-type P14; format: cell-based, Listeria monocytogenes; conditions: for PrfA downregulation (repression of Phly-lux expression): wild-type P14 in regular CDM (0.8 mM Cys), 1 mM peptide vs no-peptide control, 37°C, maximum normalized luminescence, means of three triplicate experiments
Description: as §1
PrfA-dependent gene expression was quantitatively analyzed throughout the L. monocytogenes growth curve using a chromosomally integrated luxABCDE operon under the control of the PrfA-regulated hly promoter ([Bron et al., 2006]). Overnight bacterial cultures were washed, resuspended in PBS and used to inoculate fresh medium to an initial OD at 600 nm (OD600) ≈0.02-0.05. Triplicate 200-μl aliquots were transferred to opaque 96-well plates with clear bottom (ThermoScientific) and OD600 and luminescence readings taken every 30 min during incubation in an automated microplate reader (FLUOstar Omega, BMG Labtech). Bioluminescence values were normalized to growth at each time point. RT-qPCR transcription analysis was performed on total RNA samples extracted from mid-exponential L. monocytogenes cultures (OD600 ≈0.2-0.3 for BHI media) using RNeasy mini kit (QIAGEN) as previously described ([Deshayes et al., 2012]). The number of transcripts was calculated by interpolation of threshold cycle (CT) values of cDNA amplifications in a standard regression curve generated from samples of known DNA concentration. Expession data were normalized by dividing the number of transcripts of the test gene by the geometric mean of the number of transcripts of the reference housekeeping genes rpoB and ldh ([Deshayes et al., 2012]). See Table S3 for oligonucleotides used.

PrfA [4] = molecular target: T1, PrfA (Listeria monocytogenes serovar 1/2a, UniProt P22262); conditions: read-out: Kd for PrfA; ref Reniere et al., 2015; cited from earlier work
T1 sequence (P22262 whole entry): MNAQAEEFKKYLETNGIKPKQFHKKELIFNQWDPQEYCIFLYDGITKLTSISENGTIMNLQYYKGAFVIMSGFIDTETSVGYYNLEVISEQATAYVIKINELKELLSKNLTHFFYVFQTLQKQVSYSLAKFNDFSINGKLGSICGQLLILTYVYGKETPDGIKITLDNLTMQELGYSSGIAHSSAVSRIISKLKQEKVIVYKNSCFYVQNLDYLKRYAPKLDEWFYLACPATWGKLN

PrfA [5] = molecular target: T1, PrfA; assay: biochemical; format: binding; set-up: His tag (inferred from pET28a vector and nickel-column purification); made in house; host or cells: E. coli BL21; conditions: for Binding to PrfA detected by ITC: ITC with purified PrfA, free L-Leu at 1 mM
L. monocytogenes P14 [6] = assay: Fosfomycin MIC; format: cell-based; conditions: Listeria monocytogenes
[7] = molecular target: T2, PrfA^WT binding to the PplcA/hly PrfA box (Listeria monocytogenes serovar 1/2a, UniProt P22262); assay: Biolayer interferometry of PrfA-DNA binding, PrfAWT; format: biochemical; conditions: BLI, PrfA^WT-ligand mixes at 1:100 molar ratio, 50 mM Tris-Cl pH 7.5, 300 mM NaCl, 0.05 Tween 20; at least two experiments
T2 construct: His tag (inferred from pET28a vector and nickel-column purification); made in house; host or cells: E. coli BL21
T2 sequence (P22262 whole entry): as above
Description: Bacterial pellets of IPTG-induced cultures of E. coli BL21(pET28aprfA^WT) ([Deshayes et al., 2012]; Table S2) were resuspended in lysis buffer (50 mM Tris pH 7.5, 300 mM NaCl, 20 mM imidazole) and lysed with an EmulsiFlex homogenizer. After affinity chromatography on a HiTrap HP nickel column in an AKTA system (GE Healthcare), PrfA-containing fractions were pooled together, loaded on a HiTrap Heparin HP column and then on a Superdex 75 Gel Filtration column to remove nucleic acid and protein contaminants. The buffer used for the gel filtration and storage was 50 mM Tris pH 7.5, 300 mM NaCl. Fluorescence-based thermal shift assays were performed in a real-time PCR instrument (Bio-Rad) using 25 μL triplicate samples containing 10 μΜ recombinant PrfA, 5 × SyprOrange (Invitrogen) and 1 mM synthetic peptide. Isothermal Titration Calorimetry (ITC) experiments were performed in a GE MicroCal iTC200 system (GE Healthcare). PrfA was changed to 50 mM Tris pH 7.5, 500 mM NaCl buffer and 100 μΜ of PrfA protein injected into the cell. […] Data were analyzed with the inbuilt software of the ITC apparatus using a one-site model. The specific DNA-binding activity of PrfA was measured by biolayer interferometry (BLI) with a FortéBio Octet^RED 96 apparatus using a biotinylated double-stranded oligonucleotide containing the PplcA/hly PrfA box (Table S3). […]

PrfA [8] = molecular target: T1, PrfA; format: binding; set-up: His tag (inferred from pET28a vector and nickel-column purification); made in house; host or cells: E. coli BL21

Compound: N[C@@H](CS)C(=O)O [Cys, L-cysteine]
- Minimum concentration for eugonic growth (L. monocytogenes P14 [1]; CDM, wild-type and opp bacteria): ≈ 0.2 mM
- Concentrations that inhibit P14 growth (L. monocytogenes P14 [1]; Cys-deplete CDM supplemented with increasing free Cys): ≥ 12800 µM
- Rescue of PrfA phenotype of opp mutant [2]: Rescue of opp mutant
- Amount required to completely cancel LL/LLL-mediated repression ([3]; wild-type in CDM with limiting Cys (0.1 mM), against fixed 0.25 mM Leu peptide): 6.4 mM

Compound: N[C@@H](CCC(=O)N[C@@H](CS)C(=O)NCC(=O)O)C(=O)O [GSH, γ-L-Glutamyl-L-cysteinylglycine]
- Kd (PrfA [4]): ~4000 µM
- Binding to PrfA detected by ITC (PrfA [5]): undetectable by ITC
- Rescue of PrfA phenotype of opp mutant [2]: fully restored the parental PrfA^+ phenotype
- Reversal of PrfA– phenotype of ΔgshF mutant ([2]; ΔgshF in BHI-Amb, 1 mM exogenous GSH (even at 8 mM, data not shown)): did not revert the PrfA^– phenotype

Compound: CC(C)C[C@H](NC(=O)[C@@H](N)CC(C)C)C(=O)O [LL, L-leucylleucine]
- Kd (PrfA [5]): ~25 µM

Compound: CC(C)C[C@H](NC(=O)[C@H](CC(C)C)NC(=O)[C@@H](N)CC(C)C)C(=O)O [LLL] (H-Leu-Leu-Leu-OH)
- Kd (PrfA [5]): ~25 µM

Compound: C[C@@H]1O[C@@H]1P(=O)(O)O [fosfomycin]
- MIC (L. monocytogenes P14 [6]): 12 to 32 µg/mL (≈ 86.9 to 232 µM)

Compound: CC(C)C[C@H](N)C(=O)O [free Leu, leucine]
- Binding to PrfA detected by ITC (PrfA [5]): no binding was detected
- PrfA downregulation (repression of Phly-lux expression) [3]: not inhibitory
- Inhibition of PrfA-DNA binding [7]: not

Compound: ASSLLLVG [listerial derived octapeptide, putative peptide pheromone pPplA]
- Change in melting temperature (Tm) of purified PrfA (PrfA [8]): significant drop in the Tm
- PrfA downregulation (repression of Phly-lux expression) [3]: 88%

Compound: KLLLLK [known listerial Opp substrate]
- PrfA downregulation (repression of Phly-lux expression) [3]: 96%

Compound: RGDC [Cys-containing synthetic tetrapeptide transported by Opp]
- Growth and PrfA-dependent expression with peptide as Cys source ([2]; opp mutant, CDM without Cys supplemented with 0.32 mM RGDC peptide): not
- Concentration that completely cancelled LL/LLL-mediated repression ([3]; wild-type in CDM with limiting Cys (0.1 mM), against fixed 0.25 mM LL or LLL): 80 µM
- Growth and PrfA-dependent expression with peptide as Cys source ([3]; wild-type, CDM without Cys supplemented with 0.32 mM RGDC peptide): promoted growth and PrfA-dependent expression

Compound: RKDVY [known listerial Opp substrate]
- PrfA downregulation (repression of Phly-lux expression) [3]: no effect

Compound: SQNPYPIV [known listerial Opp substrate]
- PrfA downregulation (repression of Phly-lux expression) [3]: 59%
